This note sets out measurements from US20250195468A1, “METHODS AND COMPOSITIONS FOR TREATING COLORECTAL CANCER WITH INDOXYL SULFATE” (National Institute of Immunology, priority 2023, published 2025).

Where a name gives a salt, the structure may show the parent alone.

In data set [1] the test system is human adenocarcinoma cells. The data set is described as follows: Comet assay (DNA damage). The conditions noted are these: cell lysate after IS treatment. The class given is cell-based. The method, then:
(§1) In the in vitro study, cells were exposed to various doses of indoxyl sulfate ranging from 0.038 mM to 10 mM for three different incubation periods (24 hours, 48 hours, and 72 hours). A decrease in cell proliferation efficiency was observed after 48 hours of treatment, with the most significant effects observed at concentrations of 5 mM and 10 mM of indoxyl sulfate. […] Decrease in cellular ATP content indicates the diminished cellular metabolic activity and may be linked with cell death. Considering these findings. the apoptotic effect of indoxyl sulfate was examined. […] Another study on the osteoblast cell line MC3T3-E1 also confirmed that IS acts as a bone toxin by inducing cell apoptosis and inhibiting differentiation. […] To account for this study. cells were also assessed for oxidative stress in this invention by staining them with […] (DHE) after 48 hours of treatment. […] The potential for IS to cause DNA damage was also investigated.

Data set [2] relates to HCT-116 cells. Put plainly: Apoptosis assay, Annexin V-FITC/PI flow cytometry. The class given is cell-based, human. The note with it: for apoptotic percentage: 48 hours, untreated 3%. The method, then:
(§2) The apoptotic effect of IS was evaluated on HCT-116 and HT-29 cells using the propidium iodide (PI)/Annexin V-fluorescein isothiocyanate (FITC) dual staining kit (ab14085: Abcam, USA). Duplicate wells of cells were cultured at a density of 3×10^5 cells per well in 6-well plates. After 24 hours of seeding, the cells were treated with IS at concentrations of 1.25 mM, 5 mM, and 10 mM. Following a 48-hour treatment period, the cells were harvested using trypsin and washed twice with PBS. After the washing steps, the cells were resuspended in 1 ml of fresh media and counted at each concentration using a hematocytometer. From each concentration, 2×10^5 cells were taken and dissolved in 500 μl of binding buffer, 5 μl of PI, and 5 μl of Annexin V-FITC. The cells were then incubated in the dark at room temperature for 30 minutes. Subsequently, the cells were analyzed for apoptosis using flow cytometry (BD Biosciences, FACS Canto™ Flow Cytometer, Germany) at 488 nm. Untreated cells were used as controls for comparison.
(In general: In flow cytometry, cells or beads pass a laser one at a time.)

Data set [3] concerns HT-29 cells. The data set is described as follows: Apoptosis assay, Annexin V-FITC/PI flow cytometry. It counts as cell-based, human. The note with it: for apoptotic percentage: 48 hours, untreated 3%. The method, then: as §2
Data set [4] relates to HCT-116 cells. Put plainly: Cell viability by MTT assay. The conditions noted are these: for viability at 10000 µM: Homo sapiens, HCT-116, 10 mM, untreated = 100%. It counts as cell-based, human. The method, then:
(§3) Human colon epithelial adenocarcinoma cell lines, HT-29 and HCT-116 (procured from ATCC), are commonly utilized for CRC research. HT-29 cells were cultured in McCoy 5A media (Gibco) supplemented with 10% heat-inactivated FBS (Gibco) and penicillin-streptomycin (Sigma-Aldrich: Merck KGaA, Germany). On the other hand, HCT-116 cells were cultured in Dulbecco's modified Eagle's medium-F12 nutrient mixture (DMEM-F12: Gibco) supplemented with 10% heat-inactivated FBS (Gibco) and penicillin-streptomycin (Sigma-Aldrich: Merck KGaA, Germany). The cells were incubated in a humidified incubator at 37° C. with 5% CO2.
(§4) To evaluate the impact of IS treatment, cell viability was assessed using Thiazolyl Blue Tetrazolium Bromide (MTT) dye. HT-29 and HCT-116 cells were seeded at a density of 3000 cells per well in a 96-well plate. After 24 hours of seeding, the cells were exposed to various concentrations of IS, including 0.018 mM, 0.037 mM, 0.075 mM, 0.15 mM. 0.31 mM, 0.62 mM. 1.25 mM, 2.5 mM, 5 mM, and 10 mM. Triplicate wells were treated with IS for three different incubation periods: 24 hours, 48 hours, and 72 hours. After the respective incubation periods. 20 μl of MTT dye (5 mg/ml) was added to each well and incubated for 3 hours. The yellow MTT dye is converted into purple formazan crystals by the mitochondrial succinate dehydrogenase enzyme, NAD (P) H. Following the incubation, 100 μl of dimethyl sulphoxide (DMSO) was added to dissolve the formazan crystals. Formazan crystal dissolve immediately after adding DMSO, so taken the reading just after adding the DMSO. The intensity of the purple color is directly proportional to cell viability. Absorbance was measured at 570 nm using a Multiskan Sky microplate spectrophotometer (Thermo Scientific). Non-treated cells served as controls and were considered 100% viable.
Background: Tetrazolium assays rely on reduction of a dye to a coloured formazan, in cell work by metabolically active cells.

Data set [5] has as its system HT-29 cells. The data set is described as follows: Cell viability by MTT assay. It counts as cell-based, human. The conditions noted are these: for viability at 10000 µM: Homo sapiens, HT-29, 10 mM, untreated = 100%. The method, then: as §3, §4
Data set [6] deals with human adenocarcinoma cells. Put plainly: Oxidative stress by DHE staining. The note with it: DHE staining after 48 hours of treatment. It counts as cell-based. The method, then:
as §1

The subject of data set [7] is HCT-116 cells. The data set is described as follows: Clonogenic (colony forming) assay. It counts as cell-based, human. The note with it: HCT-116, 1.25-10 mM for 48 hours, 10 days colony growth. The method, then: (§5) To assess the colony-forming ability of cells after treatment with IS, a colony forming assay was performed. HCT-116 and HT-29 cells were cultured in 6-well plates at a density of 2×10^5 cells per well. After 24 hours of seeding, the cells were exposed to IS at concentrations of 1.25 mM, 5 mM, and 10 mM. Following a 48-hour treatment period, the cells were harvested using trypsin and counted for each treatment. From each treatment group, 400, 800, and 1200 cells were plated and incubated for 10 days in 6-well plates. During the incubation period, the media were replenished every alternate day. After 10 days, the colonies were washed with PBS and stained with 0.5% crystalline violet. The cells were then fixed with 6% glutaraldehyde. The colonies were visualized and counted using ImageJ software. The clonogenic efficiency of the treated cells was compared to that of the untreated cells.

For data set [8], the system named is HT-29 cells. Put plainly: Clonogenic (colony forming) assay. It counts as cell-based, human. The note with it: HT-29, 1.25-10 mM for 48 hours, 10 days colony growth. The method, then:
as §5

The mark [9] stands for this setting: 10 mM, 48-hour treatment, stated for cells in general.

The term viability denotes a read-out of living cells in per cent, often relative to untreated cells. A high value points to less harm to the cells. In the case of `O=S(=O)(O)Oc1c[nH]c2ccccc12` [IS, Indoxyl Sulfate], the “DNA damage (comet formation)” value in data set [1] is “does not show formation of any comet”. Besides, the “increase in cell apoptosis compared to the control” value in data set [2] (setting [9]) and in data set [3] (setting [9]) was 10% throughout. Also, the apoptotic percentage in data set [2] (HCT-116, 5 mM) worked out at 9%; in data set [2] (HCT-116, 10 mM), 13%; in data set [3] (HT-29, 5 mM) it was 8%; in data set [3] (HT-29, 10 mM), 12%. Also, the “cell viability” value in data set [4] (0.62 mM, cell line not given) was “cell viability unexpectedly increased”; in data set [5] (0.62 mM, cell line not given), “cell viability unexpectedly increased”. The viability at 10000 µM in data set [4] (24 hours) amounted to 30%; in data set [4] (48 hours), 7%; in data set [4] (72 hours), 4%; in data set [5] (24 hours) it was 41%; in data set [5] (48 hours), 30%; in data set [5] (72 hours), 17%. In addition, the “production of ROS” value in data set [6] was “did not cause any production of ROS”. Also, the “number of colonies formed compared to control” value in data set [7] and in data set [8] was “significant reduction in the number of colonies formed” in each case.
